Results on six compounds are retold here after paper PMC6102670, “Three New Highly Oxygenated Germacranolides from Carpesium Divaricatum and Their Cytotoxic Activity” (Molecules : A Journal of Synthetic Chemistry and Natural …, 2018).

Where two headings read alike, the source gives them in different places.

Assay type in all cases: cell-based, Human
What all share (conditions): 4 days incubation, mean ± SD, triplicate

The test system of test [1] is Hep G2 hepatocellular cancer cell line. The experiment in a line: MTT cytotoxicity assay, Hep G2 cells. On the procedure: (§1) Cell cultures: Human A549, HepG2, and HeLa cell lines from Cancer Institute and Hospital of Chinese Academy of Medical Sciences (Beijing, China), were cultured in Dulbecco’s modified Eagle’s medium (DMEM, Gibco, CA, USA) supplemented with 10% (v/v) fetal calf serum (Gibco, CA, USA), penicillin G (Macgene, China) 100 units mL^−1 and streptomycin (Macgene, China) 100 μg mL^−1, at 37 °C under 5% CO2.
(§2) Cell viability assay: The assay was run in triplicate. In a 96-well plate, each well was plated with 2 × 10^4 cells. After cell attachment overnight, the medium was removed, and each well was treated with 100 μL of medium containing 0.1% DMSO or different concentrations of the test compounds and the positive control cis-platin. The plate was incubated at 37 °C for 4 days in a humidified, 5% CO2 atmosphere. Cytotoxicity was determined using a modified 3-(4,5-dimethylthiazol-2-yl)-2,5-diphenyltetrazolium bromide (MTT) colorimetric assay. After the addition of a 10 μL MTT solution (5 mg/mL), cells were incubated at 37 °C for 4 h. After adding 150 μL DMSO, cells were shaken to mix thoroughly. The absorbance of each well was measured at 540 nm in a Multiscan photometer.
(§3) Statistical analysis: Values were expressed as mean ± SD. Statistical analyses were performed using the Student’s t-test. Differences were considered significant when associated with a probability of 5% or less (p ≤ 0.05).

In test [2] the test system is A549 lung cancer cell line. Nature of the test: MTT cytotoxicity assay, A549 cells. The protocol:
as §1, §2, §3

Test [3] deals with HeLa cervical cancer cell line. Nature of the test: MTT cytotoxicity assay, HeLa cells. The protocol: as §1, §2, §3

As to `C=C1C(=O)O[C@H]2[C@H]1[C@@H](O)[C@H](OC(=O)CC(C)C)[C@H](C)CCC(=O)[C@](C)(O)[C@@H]2OC(=O)C(C)C` [Compound 1, 4β,8α-dihydroxy-5β-isobutyryloxy-9β-3-methylbutyryloxy-3-oxo-germacran-6α, 12-olide], the IC50 is 17 ± 2.23 µM in test [1] (Homo sapiens, HepG2, 96 h); greater than 40 µM in test [2] (Homo sapiens, 96 h); 29.39 ± 0.17 µM in test [3] (Homo sapiens, 96 h).

For the compound `C=C1C(=O)O[C@H]2[C@H]1[C@@H](O)[C@H](OC(=O)CC(C)C)[C@H](C)CCC(=O)[C@](C)(O)[C@@H]2OC(=O)CC(C)C` [Compound 2, divarolide E], the IC50 stood at 7.47 ± 0.21 µM in test [1] (Homo sapiens, HepG2, 96 h); 30.7 ± 0.51 µM in test [2] (Homo sapiens, 96 h); 16.8 ± 0.27 µM in test [3] (Homo sapiens, 96 h).

Consider `C=C(C)C(=O)O[C@H]1[C@H](O)[C@H]2C(=C)C(=O)O[C@@H]2[C@@H](OC(=O)C(C)C)[C@@](C)(O)C(=O)CC[C@H]1C` [Compound 3, divarolide F], for which the IC50 was greater than 40 µM in test [1] (Homo sapiens, HepG2, 96 h); greater than 40 µM in test [2] (Homo sapiens, 96 h); greater than 40 µM in test [3] (Homo sapiens, 96 h).

Regarding `C=C1C(=O)OC2C1C(O)C(OC(=O)C(C)CC)C(C)CCC(=O)C(C)(O)C2OC(=O)C(C)CC` (stereo not drawn) [Compound 4, divarolide G], the IC50 is greater than 40 µM in test [1] (Homo sapiens, HepG2, 96 h); greater than 40 µM in test [2] (Homo sapiens, 96 h); greater than 40 µM in test [3] (Homo sapiens, 96 h).

As for `C=C1C(=O)O[C@H]2[C@H]1[C@@H](O)[C@H](OC(=O)CC(C)C)[C@H](C)CCC(=O)[C@](C)(O)[C@@H]2OC(=O)C(C)CC` (stereo partly drawn) [Compound 5, 4β,8α-dihydroxy-5β-2-methylbutyryloxy-9β-3-methylbutyryloxy-3-oxo-germacran-7β, 12α-olide], the IC50 in test [1] (Homo sapiens, HepG2, 96 h) was 31.64 ± 0.16 µM; in test [2] (Homo sapiens, 96 h), greater than 40 µM; in test [3] (Homo sapiens, 96 h) it was 11.6 ± 1 µM.

Regarding `N.N.[Cl][Pt][Cl]` [cis-platin, reference compound], the IC50 in test [1] (read-out: IC50 (μM) HepG2) is 13 ± 1.49 µM; in test [2] it was 7.9 ± 0.23 µM; in test [3], 15.3 ± 0.35 µM.
